Key:
[1] = tested on: Intraluminal pressure in the Heidenhain pouch; experiment: Intraluminal pressure in the Heidenhain pouch of the dog (increase in amplitude of rhythmical contractions); assay type: in vivo; details: Canis lupus familiaris, iv, fasted lightly restrained conscious, increase in amplitude of rhythmical contractions for at least 4-5 minutes
Procedure: 2. Intraluminal pressure in the Heidenhain pouch of the dog
Pressure changes were recorded via a saline filled catheter inserted, with airtight closure, into the fistula of a chronic Heidenhain pouch of the previously fasted and lightly restrained conscious dog. The catheter was connected to a physiological pressure transducer and pressure changes recorded on a hot wire pen recorder. Compounds were administered when the motility was in a phase of relatively low activity and the dose range determined which induced an increase in the amplitude of rhythmical contractions for a period of at least 4-5 minutes.

[2] = tested on: Intragastric pressure; experiment: Intragastric pressure in the rat (gastric motility, fasted conscious restrained rats); assay type: in vivo; details: sc, 40 min, s.c., intragastric pressure waves, 40 minute period following dosing
Procedure: 1. Intragastric pressure in the rat
Intragastric pressure changes were recorded from fasted conscious and restrained rats using a saline filled catheter inserted into the lumen of the stomach via a permanent gastric fistula. The catheter was connected to a physiological pressure transducer and pressure changes recorded on a hot wire pen recorder. An index of activity was obtained by measuring the average height of pressure waves during 10 minute periods. Values for 4 such periods were obtained during assessment of spontaneous activity prior to dosing and for the 40 minute period following dosing with compound or vehicle. The Student's "t" test was applied to the mean values obtained for activity prior to and post treatment. Groups of 10 animals were used for each treatment.

COc1cc(N)c(Cl)cc1C(=O)NC1C2CCC1CN(C)C2 (racemic) [Example E1, (±) (8β)-4-Amino-5-chloro-2-methoxy-N-(3-methyl-3-azabicyclo[3,2,1]octan-8-yl)benzamide]
ED50 [1]: 0.05 mg/kg

COc1cc(N)c(Cl)cc1C(=O)NC1C2CCC1CN(C)C2 (racemic) [Example E2, (±) (8α)-4-Amino-5-chloro-2-methoxy-N-(3-methyl-3azabicyclo[3,2,1]octan-8-yl)benzamide]
ED50 [2]: 0.5 mg/kg

CCN1CC2CCC(C1)C2NC(=O)c1cc(Cl)c(N)cc1OC (racemic) [Example E5, (±)(8β)-4-Amino-5-chloro-2-methoxy-N-(3-ethyl-3-azabicyclo[3,2,1]octan-8-yl)benzamide]
ED50 [1]: 0.01 mg/kg

Reference: patent US4719217A, “Certain N-azabicycloalkyl-benzamides useful in the treatment of impaired gastro-intestinal motility or emesis” (Beecham Group p.l.c., priority 1985, dated 1988)
